The record followed here is patent US11944429B2, “Automatically classifying animal behavior” (President and Fellows of Harvard College, priority 2015, dated 2024).

The assay relates to mice. Put plainly: Innate behavioral response to odorant in odor box (3D depth imaging, AR-HMM). In kind it is in vivo, mouse.

Structures are written as SMILES.

For the compound `CC1=NC(C)SC1C` (stereo not drawn) [TMT], the “behavioral response to odor-containing quadrant” value (TMT delivered to one quadrant of the box via olfactometer) was “avoided the quadrant containing the predator cue and displayed prolonged periods of immobility”. Further, under “after TMT exposure”, the “per frame entropy rate with self-transitions” value was determined as 0.64±0.02 bits and the “per frame entropy rate without self-transitions” value stood at 3.66±0.08 bits. In addition, the “number of times the most commonly-expressed freezing trigram was expressed” value (after TMT exposure, in 300 minutes of imaging) worked out at 716 times. Moreover, the “average during-sequence velocity of freezing sequences” value (mice in square box, TMT 5% delivered to one quadrant, newly concatenated pausing modules) was −0.14±0.54 mm/sec. Besides, the “behavioral modules introduced or eliminated relative to control” value (n=15 in TMT, n=25 control, model co-trained) is listed as “no new modules were introduced or eliminated relative to control”.
